The test system of one data set is central nervous system. In words: tele-stereo EEG (electroencephalography) of rats after oral administration. It is filed as in vivo. The following applies: for effect of the compound according to formula I reached by known rooibos constituents: approximately equimolar quantities. From the text: In the context of the present invention, the pharmacological activity of the compound according to the invention of formula I was compared with the known constituents of the rooibos extract, such as aspalathin, catechin or (−)-epicatechin.
Since these drugs have a broad spectrum of side effects, the use of a rooibos extract with the compound according to formula I is advantageous as a drug because natural substances can usually be expected to have a lower rate of side effects. […] This is not generally commonplace for flavonoids.

Data set [1] in a line: solubility during the preparation of the HPLC standard solutions. Format: physicochemical. The following applies: preparation of the standard solutions for HPLC.
The next data set concerns monoamine oxidase. As to conditions: Plantextrakt, 2005; cited from earlier work.

Data on seven compounds can be found in patent US20110159122A1, “COMBINATION OF EXTRACTS OF VARIOUS PLANTS FOR IMPROVING THE SYMPTOMS OF DEMENTIA DISORDERS” (Kneipp-Werke Kneipp-Mittel-Zentrale GmbH & Co,KG, priority 2008, published 2011).

Turning to `O=C(CCc1ccc(O)c(O)c1)c1c(O)c(C2OC(CO)C(O)C(O)C2O)c(O)c(C2c3c(O)cc(O)cc3OC(c3ccc(O)c(O)c3)C2O)c1O` (centres unmarked) [compound of formula I, aspacat], the “crossing of the blood-brain barrier” value in the data set on central nervous system (concluded from the in vivo EEG data) is given as “evidently also crosses the blood-brain barrier”. The “discriminant analysis of the in vivo data” value in the data set on central nervous system (rat, in vivo) is “a relationship with the drugs for the treatment of dementias, Morbus Parkinson, depression and painful conditions”. For the same compound, the “pharmacological activity on the central nervous system in tele-stereo EEG” value in the data set on central nervous system (rats, oral administration) is recorded as “marked pharmacological activity on the central nervous system”. In the data set on central nervous system (rats, oral administration, as known for galantamine, tacrine, L-DOPA, nefopam), the “changes in the EEG frequencies” value was “dose-dependent changes in the EEG frequencies”. For the same compound, in the data set with central nervous system (versus aspalathin, catechin, (−)-epicatechin), the “pharmacological activity compared with known constituents of the rooibos extract” value was “higher pharmacological activity than these known constituents of the rooibos extract”.

For `O=C(CCc1ccc(O)c(O)c1)c1c(O)cc(O)c([C@@H]2O[C@H](CO)[C@@H](O)[C@H](O)[C@H]2O)c1O` [aspalathin], the “effect of the compound according to formula I reached by known rooibos constituents” value (“effect of the compound according” below) in the data set with central nervous system was “cannot be achieved with approximately equimolar quantities”. For the compound `O=c1cc(-c2ccc(O)c(O)c2)oc2c([C@@H]3O[C@H](CO)[C@@H](O)[C@H](O)[C@H]3O)c(O)cc(O)c12` [orientin, orientin(luteolin-8-C-glucoside)], the “solubility in standard solutions” value in data set [1] is on record as “exhibited solubility problems”.

Take catechin: the “effect of the compound according” value in the data set with central nervous system was “cannot be achieved with approximately equimolar quantities”. `O=c1c(O)c(-c2ccc(O)c(O)c2)oc2cc(O)cc(O)c12` [Quercetin]: in the data set on monoamine oxidase, the “inhibition of the production of monoamine oxidase” value is “capable of inhibiting the production of monoamine oxidase”.

Regarding `Oc1cc(O)c2c(c1)O[C@H](c1ccc(O)c(O)c1)[C@H](O)C2` [(−)-epicatechin], the “effect of the compound according” value in the data set on central nervous system is listed as “cannot be achieved with approximately equimolar quantities”. Turning to `O=c1cc(-c2ccc(O)cc2)oc2c([C@@H]3O[C@H](CO)[C@@H](O)[C@H](O)[C@H]3O)c(O)cc(O)c12` [vitexin, vitexin(apigenin-8-C-glucoside)], the “solubility in standard solutions” value in data set [1] was “exhibited solubility problems”.
